Test results as given in publication PMC8920385, “Design, synthesis and biological evaluation of a series of dianilinopyrimidines as EGFR inhibitors” (Journal of Enzyme Inhibition and Medicinal Chemistry, 2022).

Assays:
[1] = target: T1, wild type EGFR tyrosine kinase (EGFR^wt) (Homo sapiens, UniProt P00533); assay: In vitro EGFR^wt-TK assay (ELISA); type: biochemical; details: mean ± SD of three replicates; for inhibition at 1 µM: read-out: EGFR^wt-TK inhibition rate; for inhibition at 1 µM / EGFR^wt-TK inhibition rate: 1 μM
T1 construct: purchased PTM Bio; Co., Ltd
T1 sequence (P00533 25-1210): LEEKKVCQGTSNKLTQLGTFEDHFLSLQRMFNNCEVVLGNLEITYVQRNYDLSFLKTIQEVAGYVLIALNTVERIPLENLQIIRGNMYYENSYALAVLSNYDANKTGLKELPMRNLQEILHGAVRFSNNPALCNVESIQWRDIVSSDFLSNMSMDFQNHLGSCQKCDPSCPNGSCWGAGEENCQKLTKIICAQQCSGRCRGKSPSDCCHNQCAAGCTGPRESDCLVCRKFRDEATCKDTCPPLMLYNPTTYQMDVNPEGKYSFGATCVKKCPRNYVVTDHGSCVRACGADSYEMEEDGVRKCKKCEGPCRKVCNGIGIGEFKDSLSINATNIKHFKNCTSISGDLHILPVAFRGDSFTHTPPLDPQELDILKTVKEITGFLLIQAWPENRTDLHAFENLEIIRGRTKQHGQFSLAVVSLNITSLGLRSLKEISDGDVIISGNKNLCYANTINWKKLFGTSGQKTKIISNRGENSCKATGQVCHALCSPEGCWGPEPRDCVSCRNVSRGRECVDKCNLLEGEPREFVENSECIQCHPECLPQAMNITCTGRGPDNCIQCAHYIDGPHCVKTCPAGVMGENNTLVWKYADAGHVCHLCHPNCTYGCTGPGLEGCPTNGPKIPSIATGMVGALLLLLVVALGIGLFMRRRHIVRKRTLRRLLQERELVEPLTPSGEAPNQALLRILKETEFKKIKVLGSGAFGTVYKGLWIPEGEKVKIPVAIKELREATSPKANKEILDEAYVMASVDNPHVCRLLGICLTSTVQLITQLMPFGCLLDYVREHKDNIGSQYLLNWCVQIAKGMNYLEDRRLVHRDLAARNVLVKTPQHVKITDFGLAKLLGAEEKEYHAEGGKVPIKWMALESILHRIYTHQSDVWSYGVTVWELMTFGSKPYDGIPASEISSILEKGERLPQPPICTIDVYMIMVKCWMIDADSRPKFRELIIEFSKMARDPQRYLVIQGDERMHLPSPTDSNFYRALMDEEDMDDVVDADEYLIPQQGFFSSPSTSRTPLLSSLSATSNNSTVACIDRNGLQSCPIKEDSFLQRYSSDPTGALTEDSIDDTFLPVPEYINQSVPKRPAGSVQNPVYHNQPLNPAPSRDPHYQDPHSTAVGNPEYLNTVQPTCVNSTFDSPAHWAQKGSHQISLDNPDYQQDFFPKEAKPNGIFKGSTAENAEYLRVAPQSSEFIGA

[2] = system: A549 cells; assay: Cytotoxicity evaluation (MTT assay), A549; type: cell-based; details: Homo sapiens, mean ± SD of three replicates
[3] = system: PC-3 cells; assay: Cytotoxicity evaluation (MTT assay), PC-3; type: cell-based; details: Homo sapiens, mean ± SD of three replicates
[4] = system: HepG2 cells; assay: Cytotoxicity evaluation (MTT assay), HepG2; type: cell-based; details: Homo sapiens, mean ± SD of three replicates
[5] = system: L02 cells; assay: Cytotoxicity evaluation (MTT assay), L02 normal cells; details: Homo sapiens, L02, read-out: IC50 L02
Method: Three tumour cells with high expression of EGFR^wt were used to test the antitumor activity of the compounds including, A549 (Human non-small-cell lung cancer cell line) cells, PC-3 (Human prostate cancer cell line) cells, and HepG2 (Human hepatocellular carcinomas cell line) cells. They were all purchased from the Shanghai Cell Bank of the Chinese Academy of Sciences. L02 (normal human liver cell line) cells were also used to evaluate the cytotoxicity. […] The IC50 values were calculated from the dose − response curve under Graph-Pad Prism.

inhibition at 1 µM [1] [%]	melting point [°C]	IC50 [1] [µM]	EGFR^wt-TK inhibition rate [1] [%]	SMILES	IC50 [2] [µM]	IC50 [3] [µM]	IC50 [4] [µM]	IC50 [5] [µM]
7.59 ± 0.25	233.5 to 235.3	–	–	CNC(=O)c1ccsc1Nc1nc(Nc2ccc(NC(=O)c3ccc(F)cc3)cc2)ncc1C(F)(F)F [4d, 2-{2-[4-(4-Fluoro-benzoylamino)-phenylamino]-5-trifluoromethyl-pyrimidin-4-ylamino}-thiophene-3-carboxylic acid methylamide]	> 20	> 20	> 20	> 40
29 ± 1.55	> 250	–	–	CNC(=O)c1ccsc1Nc1nc(Nc2ccc(Nc3c(NCCNC(=O)C4CCCCC4)c(=O)c3=O)cc2)ncc1C(F)(F)F [8d, 2-[2-(4-{2-[2-(Cyclohexanecarbonyl-amino)-ethylamino]-3,4-dioxo-cyclobut-1-enylamino}-phenylamino)-5-trifluoromethyl-pyrimidin-4-ylamino]-thiophene-3-carboxylic acid methylamide]	6.14 ± 0.72	8.35 ± 0.74	8.28 ± 0.69	> 40
28.1 ± 1.27	> 250	–	–	CNC(=O)c1ccsc1Nc1nc(Nc2ccc(Nc3c(NCCNC(=O)C4CCCC4)c(=O)c3=O)cc2)ncc1C(F)(F)F [8c, 2-[2–(4-{2-[2-(Cyclopentanecarbonyl-amino)-ethylamino]-3,4-dioxo-cyclobut-1-enylamino}-phenylamino)-5-trifluoromethyl-pyrimidin-4-ylamino]-thiophene-3-carboxylic acid methylamide]	7.32 ± 0.65	9.69 ± 1.13	9.54 ± 0.91	> 40
53.1 ± 1.75	> 250	0.64 ± 0.1	–	CNC(=O)c1ccsc1Nc1nc(Nc2ccc(Nc3c(NCCNC(=O)C=Cc4ccccc4)c(=O)c3=O)cc2)ncc1C(F)(F)F [8e, 2-[2-(4-{3,4-Dioxo-2-[2-(3-phenyl-acryloylamino)-ethylamino]-cyclobut-1-enylamino}-phenylamino)-5-trifluoromethyl-pyrimidin-4-ylamino]-thiophene-3-carboxylic acid methylamide]	3.15 ± 0.44	4.12 ± 0.65	4.31 ± 0.39	> 40
30.8 ± 1.09	> 250	–	–	CNC(=O)c1ccsc1Nc1nc(Nc2ccc(NC(=O)c3cccc(C(F)(F)F)c3)cc2)ncc1C(F)(F)F [4f, 2-{5-Trifluoromethyl-2-[4-(3-trifluoromethyl-benzoylamino)-phenylamino]-pyrimidin-4-ylamino}-thiophene-3-carboxylic acid methylamide]	6.14 ± 0.78	8.51 ± 0.64	8.36 ± 0.49	> 40
29.1 ± 1.03	> 250	–	–	CNC(=O)c1ccsc1Nc1nc(Nc2ccc(Nc3c(NC(C)C)c(=O)c3=O)cc2)ncc1C(F)(F)F [6d, 2-{2-[4-(2-Isopropylamino-3,4-dioxo-cyclobut-1-enylamino)-phenylamino]-5-trifluoromethyl-pyrimidin-4-ylamino}-thiophene-3-carboxylic acid methylamide]	10.1 ± 1.96	> 20	14.1 ± 1.28	> 40
> 50	> 250	0.66 ± 0.13	57.37 ± 1.82	CNC(=O)c1ccsc1Nc1nc(Nc2ccc(Nc3c(NCCNC(=O)OC(C)(C)C)c(=O)c3=O)cc2)ncc1C(F)(F)F [6i, [2-(2-{4-[4-(3-Methylcarbamoyl-thiophen-2-ylamino)-5-trifluoromethyl-pyrimidin-2-ylamino]-phenylamino}-3,4-dioxo-cyclobut-1-enylamino)-ethyl]-carbamic acid tert-butyl ester]	3.11 ± 0.48	5.33 ± 0.47	5.24 ± 0.51	> 40
16.6 ± 0.21	> 250	–	–	CNC(=O)c1ccsc1Nc1nc(Nc2ccc(Nc3c(NCCO)c(=O)c3=O)cc2)ncc1C(F)(F)F [6c, 2–(2-{4-[2-(2-Hydroxy-ethylamino)-3,4-dioxo-cyclobut-1-enylamino]-phenylamino}-5-trifluoromethyl-pyrimidin-4-ylamino)-thiophene-3-carboxylic acid methylamide]	> 20	> 20	> 20	> 40
58.9 ± 1.92	> 250	0.57 ± 0.29	–	CNC(=O)c1ccsc1Nc1nc(Nc2ccc(Nc3c(NCCNC(=O)C=Cc4cccc(F)c4)c(=O)c3=O)cc2)ncc1C(F)(F)F [8f, 2-{2-[4–(2-{2-[3-(3-Fluoro-phenyl)-acryloylamino]-ethylamino}-3,4-dioxo-cyclobut-1-enylamino)-phenylamino]-5-trifluoromethyl-pyrimidin-4-ylamino}-thiophene-3-carboxylic acid methylamide]	2.17 ± 0.54	3.48 ± 0.22	3.09 ± 0.66	> 40
6.86 ± 0.11	> 250	–	–	CCC(=O)NCCNc1c(Nc2ccc(Nc3ncc(C(F)(F)F)c(Nc4sccc4C(=O)NC)n3)cc2)c(=O)c1=O [8a, 2-(2-{4-[3,4-Dioxo-2-(2-propionylamino-ethylamino)-cyclobut-1-enylamino]-phenylamino}-5-trifluoromethyl-pyrimidin-4-ylamino)-thiophene-3-carboxylic acid methylamide]	> 20	> 20	> 20	> 40
9.27 ± 0.25	> 250	–	–	CNC(=O)c1ccsc1Nc1nc(Nc2ccc(Nc3c(NC4CCC(O)CC4)c(=O)c3=O)cc2)ncc1C(F)(F)F (stereo not drawn) [6g, 2-(2-{4-[2–(4-Hydroxy-cyclohexylamino)-3,4-dioxo-cyclobut-1-enylamino]-phenylamino}-5-trifluoromethyl-pyrimidin-4-ylamino)-thiophene-3-carboxylic acid methylamide]	> 20	> 20	> 20	> 40
27.9 ± 1.34	244.3 to 245.9	–	–	CNC(=O)c1ccsc1Nc1nc(Nc2ccc(NC(=O)c3ccc(F)c(F)c3)cc2)ncc1C(F)(F)F [4e, 2-{2-[4-(3,4-Difluoro-benzoylamino)-phenylamino]-5-trifluoromethyl-pyrimidin-4-ylamino}-thiophene-3-carboxylic acid methylamide]	> 20	> 20	> 20	> 40
34.1 ± 1.29	> 250	–	–	CNC(=O)c1ccsc1Nc1nc(Nc2ccc(Nc3c(NC4CCCCC4)c(=O)c3=O)cc2)ncc1C(F)(F)F [6f, 2-{2-[4-(2-Cyclohexylamino-3,4-dioxo-cyclobut-1-enylamino)-phenylamino]-5-trifluoromethyl-pyrimidin-4-ylamino}-thiophene-3-carboxylic acid methylamide]	18.1 ± 2.45	> 20	> 20	> 40
17.4 ± 0.32	> 250	–	–	CCCCCCNc1c(Nc2ccc(Nc3ncc(C(F)(F)F)c(Nc4sccc4C(=O)NC)n3)cc2)c(=O)c1=O [6b, 2-{2-[4-(2-Hexylamino-3,4-dioxo-cyclobut-1-enylamino)-phenylamino]-5-trifluoromethyl-pyrimidin-4-ylamino}-thiophene-3-carboxylic acid methylamide]	> 20	> 20	> 20	> 40
> 50	> 250	0.74 ± 0.1	53.17 ± 3.05	CNC(=O)c1ccsc1Nc1nc(Nc2ccc(Nc3c(NC4CCCC4)c(=O)c3=O)cc2)ncc1C(F)(F)F [6e, 2-{2-[4-(2-Cyclopentylamino-3,4-dioxo-cyclobut-1-enylamino)-phenylamino]-5-trifluoromethyl-pyrimidin-4-ylamino}-thiophene-3-carboxylic acid methylamide]	7.14 ± 0.92	9.24 ± 0.86	9 ± 0.78	> 40
10.6 ± 0.93	> 250	–	–	CNC(=O)c1ccsc1Nc1nc(Nc2ccc(Nc3c(NC4CCN(C)CC4)c(=O)c3=O)cc2)ncc1C(F)(F)F [6h, 2-(2-{4-[2-(1-Methyl-piperidin-4-ylamino)-3,4-dioxo-cyclobut-1-enylamino]-phenylamino}-5-trifluoromethyl-pyrimidin-4-ylamino)-thiophene-3-carboxylic acid methylamide]	> 20	> 20	> 20	> 40
15.3 ± 0.48	> 250	–	–	CCCNc1c(Nc2ccc(Nc3ncc(C(F)(F)F)c(Nc4sccc4C(=O)NC)n3)cc2)c(=O)c1=O [6a, 2-{2-[4-(3,4-Dioxo-2-propylamino-cyclobut-1-enylamino)-phenylamino]-5-trifluoromethyl-pyrimidin-4-ylamino}-thiophene-3-carboxylic acid methylamide]	> 20	> 20	> 20	> 40
7.92 ± 0.54	> 250	–	–	CNC(=O)c1ccsc1Nc1nc(Nc2ccc(Nc3c(NCCNC(=O)C(C)C)c(=O)c3=O)cc2)ncc1C(F)(F)F [8b, 2-(2-{4-[2-(2-Isobutyrylamino-ethylamino)-3,4-dioxo-cyclobut-1-enylamino]-phenylamino}-5-trifluoromethyl-pyrimidin-4-ylamino)-thiophene-3-carboxylic acid methylamide]	> 20	> 20	> 20	> 40
